Tests used:
[1] = Randomised placebo-controlled double-blind study, Udvalg for Kliniske Undersogelser (UKU) scale, concentration difficulties; assay type: in vivo; conditions: 5, 15, 30 mg b.i.d
Method: (§1) The cognition enhancement properties of deramciclane were studied in a randomised placebo-controlled double-blind study. The subjects were randomly assigned to four parallel groups to receive one tablet twice daily (b.i.d) of a placebo, 5 mg (=10 mg/day), 15 mg (=30 mg/day), or 30 mg (=60 mg/day) deramciclane. The study started with a one-week placebo run-in period, followed by an eight-week placebo-controlled active treatment and a two-week placebo washout period.
(§2) The efficacy of deramciclane on cognition enhancement was studied using the cognitive part of Hamilton Anxiety Scale (HAM-A) which consists of the concentration and memory items. Cognition enhancement was also assessed using Udvalg for Kliniske Undersogelser (UKU) scale.

[2] = Randomised placebo-controlled double-blind study, cognitive part of Hamilton Anxiety Scale (HAM-A; concentration and memory items); assay type: in vivo
Method: as §1, §2

## CN(C)CCO[C@]1(c2ccccc2)C[C@H]2CC[C@]1(C)C2(C)C [deramciclane, (1R,2S,4R)-(−)-2-phenyl 2-(dimethylaminoethoxy)-1,7,7-trimethyl-bicyclo[2.2.1]heptane]
[1]
  Trend analysis (dose-response relationship), concentration difficulties, UKU-scale: statistically significant positive correlation
[2]; After 8 weeks, 5 mg b.i.d
  HAM-A Intellectual, cognitive: subjects rated Mild, number (%): 20 (47%)
  HAM-A Intellectual, cognitive: subjects rated Moderate, number (%): 6 (14%)
  HAM-A Intellectual, cognitive: subjects rated Not Present, number (%): 15 (35%)
  HAM-A Intellectual, cognitive: subjects rated Severe, number (%): 2 (5%)
[2]; After 8 weeks, 15 mg b.i.d.
  HAM-A Intellectual, cognitive: subjects rated Mild, number (%): 19 (43%)
  HAM-A Intellectual, cognitive: subjects rated Moderate, number (%): 3 (7%)
  HAM-A Intellectual, cognitive: subjects rated Not Present, number (%): 21 (48%)
  HAM-A Intellectual, cognitive: subjects rated Severe, number (%): 1 (2%)
[2]; After 8 weeks, 30 mg b.i.d.
  HAM-A Intellectual, cognitive: subjects rated Mild, number (%): 14 (30%)
  HAM-A Intellectual, cognitive: subjects rated Moderate, number (%): 10 (22%)
  HAM-A Intellectual, cognitive: subjects rated Not Present, number (%): 22 (48%)
  HAM-A Intellectual, cognitive: subjects rated Severe, number (%): 0
[2]; Baseline, 5 mg b.i.d group
  HAM-A Intellectual, cognitive: subjects rated Mild, number (%): 17 (31%)
  HAM-A Intellectual, cognitive: subjects rated Moderate, number (%): 33 (61%)
  HAM-A Intellectual, cognitive: subjects rated Not Present, number (%): 3 (6%)
  HAM-A Intellectual, cognitive: subjects rated Severe, number (%): 1 (2%)
[2]; Baseline, 15 mg b.i.d. group
  HAM-A Intellectual, cognitive: subjects rated Mild, number (%): 12 (24%)
  HAM-A Intellectual, cognitive: subjects rated Moderate, number (%): 35 (69%)
  HAM-A Intellectual, cognitive: subjects rated Not Present, number (%): 3 (6%)
  HAM-A Intellectual, cognitive: subjects rated Severe, number (%): 1 (2%)
[2]; Baseline, 30 mg b.i.d. group
  HAM-A Intellectual, cognitive: subjects rated Mild, number (%): 15 (28%)
  HAM-A Intellectual, cognitive: subjects rated Moderate, number (%): 28 (53%)
  HAM-A Intellectual, cognitive: subjects rated Not Present, number (%): 3 (6%)
  HAM-A Intellectual, cognitive: subjects rated Severe, number (%): 7 (13%)
[2]; eight-week treatment, 5, 15 or 30 mg b.i.d
  Effect on cognition measured by the cognitive part of the HAM-A: improved the cognition

Reference: patent US6335371B1, “Method for inducing cognition enhancement” (Orion Corporation, priority 2000, dated 2002)
